The subject of data set [1] is Human immunodeficiency virus 1. As to the kind of experiment: Antiviral activity against HIV1 3B infected in human CEM cells assessed as reduction in virus-induced cytopathicity after 4 to 5 days by microscopy based syncytium cell formation assay. The format is functional, organism-based, CCRF-CEM. Particulars: Human immunodeficiency virus 1, 3B, CCRF-CEM; read-out: EC50. A general note: Cytopathic effects are the visible damage that an infection or toxin causes in cultured cells.

Data set [2] has as its system Human immunodeficiency virus 2. As to the kind of experiment: Antiviral activity against HIV2 ROD infected in human CEM cells assessed as reduction in virus-induced cytopathicity after 4 to 5 days by microscopy based syncytium cell formation assay. Particulars: Human immunodeficiency virus 2, ISOLATE ROD, CCRF-CEM; read-out: EC50. Format: functional, organism-based, ISOLATE ROD, CCRF-CEM.

Data set [3] in a line: Cytotoxicity against human CEM cells assessed as inhibition of cell proliferation. Particulars: CEM cells (CCRF-CEM). Format: cell-based.
The subject of data set [4] is Hepatitis C virus. Kind of data set: Antiviral activity against HCV genotype 1b I389luc-ubi-neo/NS3-3'/5.1 replicons infected in human Huh5-2 HCV subgenomic replicon-containing cells assessed as reduction in virus replication after 3 days by luciferase reporter gene assay. Particulars: Hepatitis C virus, genotype 1b, Huh-5-2, 72 h; for EC50: read-out: EC50. Format: functional, Hepacivirus hominis. In general terms: A replicon is a self-replicating genome or part of one, used to study replication in cells.

A short description of data set [5]: Cytotoxicity against human Huh5-2 cells after 72 hrs by MTS assay. The format is cell-based, Huh-5-2.
The test system of data set [6] is Vaccinia virus. As to the kind of experiment: Antiviral activity against vaccinia virus. Particulars: Orthopoxvirus vaccinia. The format is functional, organism-based.
For data set [7], the system named is Vesicular stomatitis virus. Kind of data set: Antiviral activity against vesicular stomatitis virus. The format is functional, organism-based.
For data set [8], the system named is Coxsackievirus B4. As to the kind of experiment: Antiviral activity against human coxsackievirus B4. Format: functional, organism-based.
For data set [9], the system named is Respiratory syncytial virus. As to the kind of experiment: Antiviral activity against RSV. The format is functional, organism-based.
In data set [10] the test system is Human respirovirus 3. Kind of data set: Antiviral activity against human parainfluenza virus 3. Format: functional, organism-based.
In data set [11] the test system is Reovirus sp. Kind of data set: Antiviral activity against reovirus. Format: functional, organism-based.
Data set [12] deals with Sindbis virus. Kind of data set: Antiviral activity against sindbis virus. The format is functional, organism-based.
Data set [13] concerns Influenza A virus H3N2. Kind of data set: Antiviral activity against influenza A virus H3N2. Format: functional, organism-based.
Data set [14] concerns Influenza A virus. As to the kind of experiment: Antiviral activity against influenza A virus (H1N1). The format is functional, organism-based.
The test system of data set [15] is Punta Toro virus. As to the kind of experiment: Antiviral activity against punta toro virus. Format: functional, organism-based.
In data set [16] the test system is Feline coronavirus. As to the kind of experiment: Antiviral activity against feline coronavirus. Format: functional, organism-based.
Data set [17] relates to Felid alphaherpesvirus 1. As to the kind of experiment: Antiviral activity against feline herpesvirus. Format: functional, organism-based.
Data set [18] deals with Chikungunya virus. Kind of data set: Antiviral activity against chikungunya virus. Format: functional.

The source made the active and inactive calls. The rule behind the calls is not given here.

`O=C(NCCCCNC(=O)c1ccc(O)c(O)c1O)c1ccc(O)c(O)c1O`: the figures for the EC50 in data set [1], in data set [2] and in data set [4] were above 10 µM, above 10 µM and 15 µM, respectively. Also, the CC50 in [3] was found to be 109 µM. In [4], the EC90 was above 50 µM. The CC50 at 72 h in data set [5] was above 50 µM. In addition, the outcome in data set [6], in data set [7], in data set [8], in [9], in data set [10] and in data set [11] was inactive. For the same molecule, the outcome in [12], in [13], in data set [14], in data set [15], in data set [16] and in data set [17] was inactive. Also, the outcome in data set [18] was inactive.

In the case of `O=C(NCCCCNC(=O)c1cc(O)c(O)c(O)c1)c1cc(O)c(O)c(O)c1`, the EC50 was 5.2 µM in [1], above 10 µM in [2] and 18 µM in [4]. In data set [3], the CC50 amounted to 23 µM. In data set [4], the 90% effect concentration (EC90) was above 29 µM. The cytotoxic concentration (CC50) at 72 h in data set [5] is 29 µM. In addition, the result in [6], in data set [7], in data set [8], in [9], in [10] and in data set [11] was inactive. For the same molecule, the result in [12], in [13], in data set [14], in data set [15], in data set [16] and in data set [17] was inactive. The result in [18] was inactive.

Consider `CCCCOC(=O)c1cc(O)c(O)c(O)c1` [BUTYL GALLATE], for which the figures for the EC50 in data set [1], in [2] and in [4] were above 10 µM, above 10 µM and 13 µM, respectively. Besides, the CC50 in data set [3] was determined as 55 µM. Moreover, in [4], the EC90 was above 29 µM. For the same molecule, the midpoint of cytotoxicity in [5], the CC50 at 72 h, lay at 29 µM. Besides, the outcome in [6], in [7], in [8], in data set [9], in data set [10] and in [11] was inactive. Moreover, the result in data set [12], in data set [13], in data set [14], in data set [15], in data set [16] and in data set [17] was inactive. The outcome in [18] was inactive.

For the molecule `O=C(NCCCCCCNC(=O)c1ccc(O)c(O)c1O)c1ccc(O)c(O)c1O`, the EC50 was above 50 µM in data set [1], above 50 µM in data set [2] and 14 µM in [4]. Moreover, in [3], the CC50 is 102 µM. Further, half-maximal cytotoxicity in data set [5] (CC50 at 72 h) was put at 32 µM. Also, the outcome in [6], in data set [7], in [8], in [9], in [10] and in data set [11] was inactive. Besides, the outcome in data set [12], in [13], in data set [14], in data set [15], in [16] and in data set [17] was inactive. The result in data set [18] was inactive.

Turning to `CCOC(=O)c1cc(O)c(O)c(O)c1` [ETHYLGALLATE], the figures for the EC50 in data set [1], in data set [2] and in [4] were above 10 µM, above 10 µM and 19 µM, respectively. In [3], the CC50 turned out to be 23 µM. For the same molecule, the EC90 in data set [4] was above 45 µM. In addition, half-maximal cytotoxicity in data set [5] (CC50 at 72 h) was put at 45 µM. The outcome in data set [6], in data set [7], in [8], in [9], in data set [10] and in [11] was inactive. In addition, the outcome in data set [12], in [13], in [14], in data set [15], in data set [16] and in [17] was inactive. The result in data set [18] was inactive.

Take `CCCCCCOC(=O)c1cc(O)c(O)c(O)c1` [HEXYL GALLATE]: the EC50 in data set [1] came out at 5.4 µM; in data set [2] it was 6.6 µM; in data set [4], 9 µM. Also, the CC50 in [3] was 14 µM. Moreover, the 90% effect concentration (EC90) in data set [4] is above 50 µM. In data set [5], this molecule registered a CC50 at 72 h above 50 µM. The result in data set [6], in data set [7], in [8], in data set [9], in data set [10] and in data set [11] was inactive. Further, the outcome in data set [12], in data set [13], in data set [14], in data set [15], in [16] and in data set [17] was inactive. Also, the result in data set [18] was inactive.

As for `O=C(NCCCCCCNC(=O)c1cc(O)c(O)c(O)c1)c1cc(O)c(O)c(O)c1`, the EC50 in data set [1] was above 10 µM; in [2], above 10 µM; in [4], 11 µM. Besides, the CC50 in [3] stood at 72 µM. The EC90 in data set [4] is above 24 µM. Besides, the CC50 at 72 h in data set [5] was 24 µM. Besides, the outcome in data set [6], in data set [7], in data set [8], in [9], in [10] and in data set [11] was inactive. Also, the outcome in [12], in data set [13], in [14], in data set [15], in data set [16] and in data set [17] was inactive. The outcome in data set [18] was inactive.

For the molecule `O=C(OCCCCOC(=O)c1cc(O)c(O)c(O)c1)c1cc(O)c(O)c(O)c1`, the EC50 is above 10 µM in data set [1], above 10 µM in [2] and 39 µM in [4]. Also, the half-maximal cytotoxic concentration (CC50) in data set [3] was found to be 21 µM. In addition, the EC90 in data set [4] is above 50 µM. The CC50 at 72 h in [5] was above 50 µM. In addition, the outcome in data set [6], in data set [7], in data set [8], in data set [9], in data set [10] and in data set [11] was inactive. The result in [12], in [13], in data set [14], in data set [15], in data set [16] and in data set [17] was inactive. Moreover, the result in data set [18] was inactive.

As to `O=C(NCCCCCCCCCCCCNC(=O)c1cccc(O)c1O)c1cccc(O)c1O`, the half-maximal effective concentration (EC50) was above 2 µM in [1], above 2 µM in data set [2] and 2 µM in data set [4]. Moreover, in data set [3], the CC50 worked out at 4.8 µM. In addition, in data set [4], the EC90 was found to be 4.8 µM. In addition, the midpoint of cytotoxicity in data set [5], the CC50 at 72 h, lay at 108 µM. Further, the outcome in data set [6], in [7], in [8], in data set [9], in data set [10] and in data set [11] was inactive. Besides, the outcome in [12], in data set [13], in [14], in data set [15], in [16] and in data set [17] was inactive. For the same molecule, the outcome in data set [18] was inactive.

`CCCCCOC(=O)c1cc(O)c(O)c(O)c1` [PENTYL GALLATE]: the EC50 in data set [1] was 14 µM; in [2] it was at least 10 µM; in data set [4], 14 µM. In addition, the 50% cytotoxic concentration (CC50) in [3] is 47 µM. Besides, the 90% effect concentration (EC90) in data set [4] is above 50 µM. In [5], this molecule yielded a CC50 at 72 h above 50 µM. Moreover, the result in data set [6], in data set [7], in data set [8], in data set [9], in [10] and in data set [11] was inactive. In addition, the result in data set [12], in data set [13], in [14], in data set [15], in data set [16] and in [17] was inactive. In addition, in data set [18], the result was inactive.

Broadly, the EC50 is the concentration needed to bring the measured effect to its halfway point. Broadly, the CC50 is the concentration giving 50% cytotoxicity. For orientation: EC90 means the concentration at which the effect reaches the 90% level.
